Source: US20240216396A1, “NEUROACTIVE STEROID FOR USE IN TREATING MAJOR DEPRESSIVE DISORDER AND […] A LACTATING FEMALE” (Sage Therapeutics, Inc., priority 2021, published 2024)

What was measured:
[1] = tested on: synaptic and extrasynaptic GABAA receptors; conditions: cited from earlier work
[2] = Breast milk production (volume) in healthy lactating participants; type: in vivo, human; conditions: 30 mg once-daily oral for 5 days; inter-participant variability noted
Source text: (§1) Compound (1) is an investigational, synthetic, oral neuroactive steroid under investigation as a once-daily therapy for major depressive disorder and postpartum depression. This open-label study evaluated the extent of Compound (1) transfer into breast milk, breast milk production (volume), pharmacokinetics (PK), plasma protein binding, safety, and tolerability in healthy lactating participants.
(§2) Healthy volunteers (N=15) aged 18-45 years, >12 weeks postpartum, actively lactating, and pumping or breast feeding ≥3 times per day orally self-administered Compound (1) 30 mg once-daily with food for 5 days. Breast milk was collected from Day −3 through Day 12. Blood samples for PK and plasma protein binding analysis were collected predose (Day 1), on Days 5-6, and during follow-up (Days 7, 9, and 12). The relationship between plasma and breast milk concentrations was examined with population PK modeling.

[3] = Population PK modeling of the relationship between plasma and breast milk concentrations; type: in vivo, human
Procedure: as §2

[4] = Open-label study: transfer of Compound (1) into breast milk of healthy lactating women; type: in vivo, human
Source text: as §1, §2

[5] = tested on: plasma protein; assay: Plasma protein binding analysis of blood samples from healthy lactating participants; type: in vitro ADME; conditions: female, human, across participants, 30 mg once-daily oral with food for 5 days, read-out: free fraction in plasma (plasma protein binding)
Source text: as §1, §2

[6] = Safety and tolerability in healthy lactating participants; type: in vivo, human
Source text: as §1, §2

C[C@@]1(O)CC[C@H]2[C@H](CC[C@@H]3[C@@H]2CC[C@]2(C)[C@@H](C(=O)Cn4cc(C#N)cn4)CC[C@@H]32)C1 [Compound (1), 1-(2-((3R,5R,8R,9R,10S,13S,14S,17S)-3-hydroxy-3,13-dimethylhexadecahydro-1H-cyclopenta[a]phenanthren-17-yl)-2-oxoethyl)-1H-pyrazole-4-carbonitrile]
action on GABAA receptors [1]: positive allosteric modulator
decrease of volume of milk collected from baseline [2]: 8.3%
Kp ([3]; female, human, breast milk/plasma, oral, 30 mg, constant, population PK modeling, read-out: partition coefficient between milk and plasma): 0.501
relationship of plasma concentrations with time or collected milk volume ([3]; in vivo): no apparent relationship
between-subject variability in milk/plasma partitioning ([3]; population PK modeling): 23%
breast milk concentration relative to plasma concentration ([4]; 30 mg once-daily for 5 days): approximately one-half
daily infant dose ([4]; Day 5, 30 mg once-daily oral for 5 days): 0.00125 mg/kg/day
estimated mean relative infant dose (RID) ([4]; Day 5, 30 mg once-daily oral for 5 days, compared to maternal dose): 0.357%
fraction unbound [5]: ≤ 0.0052
tolerability ([6]; 30 mg for 5 days, healthy lactating participants): well-tolerated
adverse events reported ([6]; 30 mg once-daily oral for 5 days, N=15): No deaths, serious adverse events, moderate or severe treatment-emergent adverse events (TEAEs), or TEAEs leading to discontinuation or study withdrawal were reported
